Like-named read-outs stand apart in the source and are kept apart here.
Experiments:
[1] = Aqueous PBS solubility determination; assay type: physicochemical; details: sodium phosphate buffer, kinetic from dmso stock, pH 7.4 0.01 M phosphate buffer solution, 37 °C
Protocol: The stock solution of the compound tested in DMSO (10 mM) was diluted with 0.01 M sodium phosphate buffer solution (pH 7.4) to the concentration of 100 µM, 80 µM, 60 µM, 50 µM, 40 µM, 30 µM, 20 µM and 10 µM. The serially diluted solutions were transferred into a 96-well plate (Corning 3635, UV Plate) and the plate was incubated at 37 °C for 2 h using BioSan PST-60HL-4 thermo shaker. The plate was read at the wavelength of 620 nm using spectrophotometric microplate reader Sunrise (Tecan, Australia). The optical density values were plotted against compound concentration and approximated by a linear relationship to determine the aqueous solubility.

[2] = Plasma protein binding determination (RED dialysis); assay type: in vitro ADME; details: pooled human blood plasma, 37 °C, read-out: plasma protein binding (% bound) (converted)
Protocol: Determination of binding to human blood plasma proteins was carried out using pooled human blood plasma obtained from ten healthy donors. Determination was performed using Thermo Scientific ™ Single-RED dialysis plates. Test solutions of the candidate (10 mM in DMSO) were prepared in blood plasma and in 0.01 M sodium phosphate buffer by dilution in pooled blood plasma to a concentration of 10 μM (test solution 1) and in buffer to a concentration of 10 μM (test solution 2), respectively. The test solutions were transferred to the chambers of the dialysis plate, incubated in an Environmental Shaker – Incubator ES-20/60 (Biosan, Latvia) for 4 h at a temperature of 37 °C at a speed of 130–250 rpm. During the incubation, passive diffusion of the unbound compound occurs, and after 4 h, equilibrium is reached between the chambers with plasma with buffer solution. At the end of the incubation time, samples were taken from the chambers of the plate. HPLC analysis performed using an Agilent 1260 chromatograph (Agilent, USA) allowed determination of the peak area of the compounds in the test samples with preliminary precipitation of proteins with acetonitrile (300 µL of acetonitrile per 100 µL of the reaction mixture). After stopping the reaction, the samples were centrifuged for 10 min at 10,000 rpm and the supernatant was collected.
The concentration of the test compound in the buffer and plasma chambers was calculated using the formula: С=At=4/At=0×10, where At=0 is the value of the peak area of the candidate's test solution on the chromatogram at the initial moment of time;
The % unbound compound was calculated using the formula: %Free=C1/C2×100, where C1 is the concentration value in the buffer chamber;

[3] = Stability in human liver microsomes; assay type: in vitro ADME; details: HLM 0.5 mg/mL, 10 μM compound, 37 °C; intrinsic clearance
Protocol: (§1) The rate of enzymatic degradation of the compound in liver microsomes was determined by incubating a mixture containing 0.5 mg/mL of pooled human liver microsomes (XenoTech, USA, cat. # H2620), 10 μM of compound tested, 2 mM β-nicotinamide adenine dinucleotide (Carbosynth, UK, cat. # NN10871) and 4 mM magnesium chloride in 0.1 M sodium phosphate buffer (pH 7.4) in a solid-state thermostat at 37 °C. The rate of enzymatic degradation of the compound in human liver S9 fraction was determined by incubating a reaction mixture containing 0.5 mg/mL of pooled S9 human liver fractions (XenoTech, USA, cat # H0610), 10 μM of compound tested, 2 mM β-nicotinamide adenine dinucleotide (Carbosynth, UK, cat # NN10871) and 4 mM magnesium chloride in 0.1 M sodium phosphate buffer (pH 7.4) in a solid-state thermostat at 37 °C. The reaction was stopped with acetonitrile (100 μL MeCN per 100 μL of the reaction mixture). After stopping the reaction, the samples were centrifuged for 10 min at 10,000 rpm. The supernatant was analysed by chromatography using an Agilent 1260 chromatograph (Agilent, United States). Chromatographic analysis was performed in a gradient elution mode at a flow rate of 1 ml/min. A graph of the dependence of the logarithm of the area of the peak of the substance on time was built. The dependent coefficient of this straight line corresponded to the elimination constant k, on the basis of which the half-life of the drug (T1/2) and intrinsic clearance (Clint) were calculated.

PARP2 [4] = target: T1, PARP2 (Homo sapiens, UniProt Q9UGN5); experiment: PARP2 colorimetric activity assay kit (BPS Bioscience); assay type: biochemical; details: for IC50: dose-response, mean (n = 3) ± SD, r^2 in brackets
T1 construct: purchased BPS Bioscience (San Diego, CA)
T1 sequence (Q9UGN5 whole entry): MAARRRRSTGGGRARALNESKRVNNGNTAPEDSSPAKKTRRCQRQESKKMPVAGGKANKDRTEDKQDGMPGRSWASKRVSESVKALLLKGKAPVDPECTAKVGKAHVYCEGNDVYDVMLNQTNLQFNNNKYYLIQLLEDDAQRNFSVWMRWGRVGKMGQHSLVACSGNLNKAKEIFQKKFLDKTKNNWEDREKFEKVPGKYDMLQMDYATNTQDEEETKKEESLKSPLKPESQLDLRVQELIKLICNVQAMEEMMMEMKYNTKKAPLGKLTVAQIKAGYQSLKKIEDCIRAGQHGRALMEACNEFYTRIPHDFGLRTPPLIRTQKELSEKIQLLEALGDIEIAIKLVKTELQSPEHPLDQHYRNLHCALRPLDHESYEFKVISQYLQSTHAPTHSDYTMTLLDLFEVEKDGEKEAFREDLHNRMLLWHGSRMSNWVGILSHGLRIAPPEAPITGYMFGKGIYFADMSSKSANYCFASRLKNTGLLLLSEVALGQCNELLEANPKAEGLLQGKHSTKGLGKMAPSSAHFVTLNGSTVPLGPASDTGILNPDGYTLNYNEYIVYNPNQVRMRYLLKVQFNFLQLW
Protocol: (§2) The thirty-six 1-oxo-3,4-dihydroisoquinoline-4-carboxamides 3a-aj and 1-oxoisoquinoline-4-carboxamide 11 were tested for inhibitory activity towards PARP1 and PARP2 using the commercially available colorimetric activity assay kit from BPS Bioscience (San Diego, CA) in full accordance of the supplier’s method description[13]^,[14]. The initial screening was performed against PARP1 at 1 µM concentration of each compound, in triplicate (n = 3) measurements.

[5] = Stability in human liver S9 fraction; assay type: in vitro ADME; details: human liver S9 0.5 mg/mL, 10 μM compound, 37 °C; intrinsic clearance
Protocol: as §1

[6] = Plasma stability determination; assay type: in vitro ADME, human; details: 4 h, 37 °C, 10 μM
Protocol: Determination of stability in human blood plasma was carried out using pooled human blood plasma obtained from ten healthy donors. The candidate stock solution (10 mM in DMSO) was diluted with the pooled blood plasma to a concentration of 10 μM (test solution). The test solution was kept in a solid-state thermostat for 4 h at a temperature of 37 °C. HPLC method using an Agilent 1260 chromatograph (Agilent, USA) was employed to determine the peak area of the compounds in the test samples corresponding to the initial test time (before exposure) and the final test time (after incubation in a solid-state thermostat for 4 h at 37 °C) with preliminary precipitation of protein mass with acetonitrile (300 μL MeCN per 100 μL of the reaction mixture). After stopping the reaction, the samples were centrifuged for 10 min at 10,000 rpm and the supernatant was collected. Chromatographic analysis was performed in a gradient elution mode at a flow rate of 1 ml/min.

PARP1 [7] = target: T2, PARP1 (Homo sapiens, UniProt P09874); experiment: PARP1 colorimetric activity assay kit (BPS Bioscience); assay type: biochemical; details: for IC50: dose-response, mean (n = 3) ± SD, r^2 in brackets; for inhibition at 1 µM: read-out: PARP1 % inhibition at 1 µM, 1 µM compound, triplicate (n = 3)
T2 construct: purchased BPS Bioscience (San Diego, CA)
T2 sequence (P09874 whole entry): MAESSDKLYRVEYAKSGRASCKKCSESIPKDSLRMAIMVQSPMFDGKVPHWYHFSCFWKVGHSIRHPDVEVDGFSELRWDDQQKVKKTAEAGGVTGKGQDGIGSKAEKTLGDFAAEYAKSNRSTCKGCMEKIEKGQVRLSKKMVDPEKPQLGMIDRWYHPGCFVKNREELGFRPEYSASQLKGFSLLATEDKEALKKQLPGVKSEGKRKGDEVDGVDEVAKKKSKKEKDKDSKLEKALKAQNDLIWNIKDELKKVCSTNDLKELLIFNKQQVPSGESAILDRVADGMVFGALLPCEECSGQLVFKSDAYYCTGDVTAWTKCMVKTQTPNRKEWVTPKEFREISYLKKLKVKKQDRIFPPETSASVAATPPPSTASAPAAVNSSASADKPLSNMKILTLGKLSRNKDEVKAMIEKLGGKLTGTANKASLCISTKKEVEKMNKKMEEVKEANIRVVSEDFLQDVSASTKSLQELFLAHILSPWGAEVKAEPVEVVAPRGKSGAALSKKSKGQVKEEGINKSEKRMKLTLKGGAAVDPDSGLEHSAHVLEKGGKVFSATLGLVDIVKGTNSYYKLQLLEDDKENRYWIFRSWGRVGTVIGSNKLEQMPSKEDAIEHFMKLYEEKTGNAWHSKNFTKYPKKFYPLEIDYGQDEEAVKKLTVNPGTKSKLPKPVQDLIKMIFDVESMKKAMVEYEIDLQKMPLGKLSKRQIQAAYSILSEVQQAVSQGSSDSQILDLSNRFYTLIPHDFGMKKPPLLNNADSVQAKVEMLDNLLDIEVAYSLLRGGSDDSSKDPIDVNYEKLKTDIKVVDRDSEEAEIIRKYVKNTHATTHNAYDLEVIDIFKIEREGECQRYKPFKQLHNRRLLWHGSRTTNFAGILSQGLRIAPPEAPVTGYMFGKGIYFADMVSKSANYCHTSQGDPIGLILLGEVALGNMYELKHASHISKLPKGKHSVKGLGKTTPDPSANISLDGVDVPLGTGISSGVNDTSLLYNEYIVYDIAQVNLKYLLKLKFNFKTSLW
Protocol: as §2

PARP2 [8] = target: T1, PARP2; details: cited from earlier work; for selectivity index (SI): PARP2 selectivity
PARP1 [9] = target: T2, PARP1; details: cited from earlier work

| SI, selectivity index (PARP2 over PARP1) (PARP2 [4]) | IC50 (PARP2 [4]) [nM] | IC50 (PARP1 [7]) [nM] | inhibition at 1 µM (PARP1 [7]) [%] | melting point [°C] | SMILES | also measured |
| --- | --- | --- | --- | --- | --- | --- |
| 2.23 | 70.1 ± 7.6 | 156 ± 5.8 | 85.2 ± 2.6 |  | O=C1NCC(C(=O)N2CCC(N3CCCCC3)CC2)c2ccccc21 (stereo not shown) [Compound 3l, 4-([1,4'-Bipiperidine]-1'-carbonyl)-3,4-dihydroisoquinolin-1(2H)-one] | solubility at 2 h [1]: > 100 µM; fraction unbound at 4 h, 10 µM [2]: 0.332; Stability in the presence of human liver microsomes [3]: 2.6 µL/min/mg; Stability in the presence of hepatic S9 fraction [5]: 0.3 µL/min/mg; % compound remaining after incubation with human plasma [6]: 92.6%; PARP1 inhibitory potency in words (PARP1 [7]; compared with 3l): active |
| 2.61 | 20.6 ± 2.5 | 55 ± 9.9 | 96.6 ± 0.3 | 179 to 180 | O=C1NCC(C(=O)N2CCC(N3CCCCCC3)CC2)c2ccc(F)cc21 (stereo not shown) [Compound 3ae, 4-(4-(Azepan-1-yl)piperidine-1-carbonyl)-7-fluoro-3,4-dihydroisoquinolin-1(2H)-one] |  |
|  |  |  |  |  | O=C(Oc1cccc2c(=O)[nH]ccc12)c1ccccc1 [Compound 1b] | selectivity index (SI) (PARP2 [8]): 60.0; IC50 (PARP2 [8]): 150 nM; IC50 (PARP1 [9]): 9000 nM |
| 6.05 | 44.1 ± 3.9 | 266 ± 25 | 90.5 ± 0.1 | 186 to 187 | COC1CCN(C2CCN(C(=O)C3CNC(=O)c4cc(F)ccc43)CC2)CC1 (stereo not shown) [Compound 3aj, 7-Fluoro-4–(4-methoxy-[1,4'-bipiperidine]-1'-carbonyl)-3,4-dihydroisoquinolin-1(2H)-one] |  |
|  |  |  |  |  | O=C(Nc1cccc2c(=O)[nH]ccc12)c1ccccc1 [Compound 2] | IC50 (PARP2 [8]): 1500 nM |
| 3.23 | 40.4 ± 5.8 | 128 ± 7.1 | 92.6 ± 1.1 | 134 to 135 | CCN(CC)C1CCN(C(=O)C2CNC(=O)c3cc(F)ccc32)CC1 (stereo not shown) [Compound 3ad, 4–(4-(Diethylamino)piperidine-1-carbonyl)-7-fluoro-3,4-dihydroisoquinolin-1(2H)-one] |  |
| 4.63 | 22 ± 5.6 | 102 ± 9.4 | 95 ± 0.9 | 200 to 201 | CC1(C)CCN(C2CCN(C(=O)C3CNC(=O)c4cc(F)ccc43)CC2)CC1 (stereo not shown) [Compound 3ag, 4–(4,4-Dimethyl-[1,4'-bipiperidine]-1'-carbonyl)-7-fluoro-3,4-dihydroisoquinolin-1(2H)-one] |  |
| 5.05 | 19.4 ± 3.7 | 95.6 ± 11.5 | 96.9 ± 0.5 | 182 to 183 | CC1(C)CCCN(C2CCN(C(=O)C3CNC(=O)c4cc(F)ccc43)CC2)C1 (stereo not shown) [Compound 3af, 4–(3,3-Dimethyl-[1,4'-bipiperidine]-1'-carbonyl)-7-fluoro-3,4-dihydroisoquinolin-1(2H)-one] |  |
| 2.17 | 29.4 ± 4.5 | 63.1 ± 5.3 | 91.8 ± 0.7 |  | O=C1NCC(C(=O)N2CCC(N3CCCCC3)CC2)c2ccc(F)cc21 (stereo not shown) [Compound 3aa, 4-([1,4'-Bipiperidine]-1'-carbonyl)-7-fluoro-3,4-dihydroisoquinolin-1(2H)-one] | solubility at 2 h [1]: > 100 µM; fraction unbound at 4 h, 10 µM [2]: 0.29; Stability in the presence of human liver microsomes [3]: 3.4 µL/min/mg; Stability in the presence of hepatic S9 fraction [5]: 0.1 µL/min/mg; % compound remaining after incubation with human plasma [6]: 100%; fold better potency compared to 3l (PARP1 [7]; magic fluorine effect, 3aa vs 3l): ~2.5 fold |
| 2.3 | 29.6 ± 6.1 | 69.5 ± 8.8 | 95.8 ± 0.7 | 141 to 142 | O=C1NCC(C(=O)N2CCC(N3CCCC3)CC2)c2ccc(F)cc21 (stereo not shown) [Compound 3ac, 7-Fluoro-4–(4-(pyrrolidin-1-yl)piperidine-1-carbonyl)-3,4-dihydroisoquinolin-1(2H)-one] |  |
|  |  |  |  |  | O=C(Oc1cccc2c1CCNC2=O)c1ccccc1 [Compound 1a] | selectivity index (SI) (PARP2 [8]): 16.3; IC50 (PARP2 [8]): 800 nM; IC50 (PARP1 [9]): 13000 nM |
| 2.82 | 28.8 ± 4.2 | 82 ± 6.9 | 93.9 ± 0.2 | 171 to 172 | CC1CCN(C2CCN(C(=O)C3CNC(=O)c4cc(F)ccc43)CC2)CC1 (stereo not shown) [Compound 3ab, 7-Fluoro-4–(4-methyl-[1,4'-bipiperidine]-1'-carbonyl)-3,4-dihydroisoquinolin-1(2H)-one] |  |
|  |  |  |  |  | O=C(c1cc(Cc2n[nH]c(=O)c3ccccc23)ccc1F)N1CCN(C(=O)C2CC2)CC1 [Olaparib, reference compound] | solubility at 2 h [1]: > 100 µM; fraction unbound at 4 h, 10 µM [2]: 0.098; Stability in the presence of human liver microsomes [3]: 15 µL/min/mg; Stability in the presence of hepatic S9 fraction [5]: 1.1 µL/min/mg; % compound remaining after incubation with human plasma [6]: 100% |
